Results on four compounds are retold here after patent publication US20170334899A1, “AMINO-SUBSTITUTED ISOTHIAZOLES” (Bayer Pharma Aktiengesellschaft, priority 2014, published 2017).

What all share (format): cell-based
Experiment [1] concerns human cervical tumor cell line HeLa (ATCC CCL-2). The experiment is described as follows: SAC-Formation - Nocodazole-Induced Assay. The following applies: Homo sapiens, HeLa, 24 h, HeLa cells, nocodazole 0.1 μg/ml together with test compound, decrease of mitotic cells (phospho-histone H3 Ser10). The method in brief:
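HeLa cells, plated overnight, were treated 24 h at 37 °C with nocodazole (0.1 μg/ml final) plus test compound (0.005–20 μM, 0.5% DMSO) added at the same time. After fixation, anti-phospho-histone H3 Ser10 and Hoechst staining gave the mitotic cell fraction by imaging. Values came from four-parameter Hill fits.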

Experiment [2] has the same test system. The experiment can be described thus: SAC-Formation - Paclitaxel-Induced Assay. The following applies: Homo sapiens, HeLa, 24 h, HeLa cells, paclitaxel 0.05 μM, test range 0.005 μM-20 μM, read-out: IC50 [mol/l] SAC-Formation - Paclitaxel-Induced Assay. The method in brief:
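HeLa cells incubated overnight at 37° C, then given paclitaxel (0.05 μM final) plus test compound (0.005–20 μM, 0.5% DMSO) together for 24 h at 37° C. Fixed cells stained for phospho-histone H3 Ser10 (mitotic cells) and Hoechst 33342 (cell count); imaging-derived mitotic index fitted by four-parameter Hill equation.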

The next experiment concerns HeLa. The experiment can be described thus: Proliferation assay (crystal violet), HeLa. The following applies: Homo sapiens, HeLa, 96 h, HeLa cells; 4 days incubation; crystal violet staining; read-out: IC50 inhibition of proliferation, HeLa. The method in brief: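 Tumor cells seeded at 1000–5000 cells/well in medium with 10% FCS; after 24 h, compounds added at 0.001–10 μM (0.5% DMSO) for 4 days. Cells fixed with glutaraldehyde, stained with crystal violet, dye dissolved in acetic acid and read at 595 nm. IC50 from 4-parameter fit, normalized to zero-point plate and untreated cells.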

Consider `Cc1nsc(Nc2cnc3ccccc3n2)c1C(=O)Nc1cccc(C(=O)N2CCN(Cc3ccc(F)cc3)CC2)c1` [Example 93, N-(3-{[4-(4-Fluorobenzyl)piperazin-1-yl]carbonyl}phenyl)-3-methyl-5-(quinoxalin-2-ylamino)-1,2-thiazole-4-carboxamide], for which the IC50 in experiment [1] was 0.71 µM; in experiment [2], 2.7 µM; in the experiment with HeLa it was 9.9 µM.
As for `Cc1nsc(Nc2cnc3ccccc3n2)c1C(=O)Nc1cccc(C(=O)N2CCN(CCc3ccccn3)CC2)c1` [Example 94, 3-Methyl-N-[3-({4-[2-(pyridin-2-yl)ethyl]piperazin-1-yl}-carbonyl)phenyl]-5-(quinoxalin-2-ylamino)-1,2-thiazole-4-carboxamide], the IC50 in experiment [1] came out at 0.94 µM; in experiment [2] it was 8.4 µM; in the experiment on HeLa, 10 µM.
For `Cc1nsc(Nc2cnc3ccccc3n2)c1C(=O)Nc1cccc(C(=O)NCCCN2CCOCC2)c1` [Example 95, 3-Methyl-N-(3-{[3-(morpholin-4-yl)propyl]carbamoyl}-phenyl)-5-(quinoxalin-2-ylamino)-1,2-thiazole-4-carboxamide] the same measures were 0.068 µM, 10 µM and 10 µM.
The like results for `Cc1nsc(Nc2cnc3ccccc3n2)c1C(=O)Nc1cccc(N)c1` [Example 450, N-(3-Aminophenyl)-3-methyl-5-(quinoxalin-2-ylamino)-1,2-thiazole-4-carboxamide] were, in that order, 12 µM, 20 µM and > 10 µM.
